Laboratory results from patent US8575135B2 (Gilead Sciences, Inc., priority 2011, dated 2013).
Like-named read-outs stand apart in the source and are kept apart here.

Columns and labels:
[1] = tested on: stable HCV 1a RLuc replicon cells (genotype 1a H77 replicon); experiment: microbe, parasite or virus in culture; format: cell-based; conditions: Hepatitis C virus
[2] = tested on: stable HCV 1b RLuc replicon cells (genotype 1b Con1 replicon); experiment: microbe, parasite or virus in culture; format: cell-based; conditions: Hepatitis C virus, read-out: 1b (nM)
[3] = tested on: stable HCV 2a JFH-1 Rluc replicon cells (L31 present in NS5A); experiment: microbe, parasite or virus in culture; format: cell-based; conditions: Hepatitis C virus
[4] = tested on: NS5A chimeric genotype 1b Con1 replicon with genotype 3a S52 strain NS5A gene; experiment: microbe, parasite or virus in culture; format: cell-based, HCV; conditions: Hepatitis C virus
Summary of the method: (§1)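 Con1 1b replicons carrying 3a S52 or 4a ED43 NS5A with Pi-RLuc reporter were transiently transfected into Huh-Lunet cells; 2b MD2b-1 NS5A (M31) in JFH-1 2a backbone with RLuc-Neo, transient or stable.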

[5] = tested on: NS5A chimeric genotype 2a JFH-1 replicon with genotype 2a J6 strain NS5A gene (M31 present); experiment: microbe, parasite or virus in culture; format: cell-based, HCV; conditions: Hepatitis C virus
[6] = tested on: NS5A chimeric genotype 2a JFH-1 replicon with genotype 2b MD2b-1 strain NS5A gene (M31 present); experiment: microbe, parasite or virus in culture; format: cell-based, HCV; conditions: Hepatitis C virus
Summary of the method: as §1

[7] = tested on: 1a Pi-Rluc replicon with Q30R in genotype 1a NS5A; experiment: microbe, parasite or virus in culture; format: cell-based, HCV; conditions: Hepatitis C virus
Summary of the method: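 Renilla luciferase replicon assay: 1a Pi-RLuc replicon carrying NS5A Q30R, transfected transiently into cured-51 (Huh-7-derived) cells.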

[8] = IV and PO single dose pharmacokinetic studies in SD rats; format: in vivo; conditions: male, Sprague-Dawley, rat, plasma, IV infusion 1 mg/kg vs oral gavage 2 mg/kg, read-out: Rat % F
Procedure: IV and PO Single Dose Pharmacokinetic Studies in SD Rats: The pharmacokinetics of selected compounds was characterized in male Sprague-Dawley (SD) rats (250-300g). […] The intravenous (IV) dosing vehicle was 5% ethanol, 35% polyethylene glycol 400 (PEG 400) and 60% water pH 2.0. […] Serial blood samples (approximately 0.3 mL each) were collected from jugular vein or other suitable vein at specified time points. […] The blood samples were collected into Vacutainer™ tubes containing EDTA-K3 as the anti-coagulant and were centrifuged at approximately 4° C. to obtain plasma. The plasma samples were stored at −20° C. until analysis by LC/MS/MS. A bioanalytical method utilizing high performance liquid chromatography coupled to tandem mass spectrometry (LC/MS/MS) was developed for analysis of the selected compound in rat plasma. Detection was performed using selected reaction monitoring (SRM); […] Standard curve and quality control samples were prepared in male rat plasma and processed in the same way as the test samples to generate quantitative data. Pharmacokinetic parameters were generated using non-compartmental pharmacokinetic analysis (Phoenix WinNonlin, version 6.3). Values below the lower limit of quantification (LLOQ) were assigned a value of zero if predose and treated as missing thereafter. Area under the curve (AUC) was calculated using the linear trapezoidal rule. The oral bioavailability (% F) was determined by comparison of the area under the curve (AUC) of the compound and/or a metabolite generated in plasma following oral administration to that generated following intravenous administration.

[9] = tested on: NS5A chimeric genotype 1b Con1 replicon with genotype 4a ED43 strain NS5A gene; experiment: microbe, parasite or virus in culture; format: cell-based, HCV; conditions: Hepatitis C virus

| SMILES | EC50 ([1]; read-out: 1a) [nM] | EC50 ([1]; read-out: 1a (nM)) [nM] | EC50 [2] [nM] | EC50 ([3]; read-out: 2a JFH) [nM] | EC50 ([3]; read-out: 2a JFH (nM)) [nM] | EC50 ([4]; read-out: 3a) [nM] | EC50 ([4]; read-out: 3a (nM)) [nM] | EC50 ([5]; read-out: 2a J6) [nM] | EC50 ([5]; read-out: 2a Jb (t) (nM)) [nM] | EC50 ([6]; read-out: 2b) [nM] | EC50 ([6]; read-out: 2b (t) (nM)) [nM] | EC50 ([7]; read-out: 1a Q30R) [nM] | EC50 ([7]; read-out: 1a Q30R (nM)) [nM] | bioavailability [8] [%] | EC50 ([5]; read-out: 2a J6 (s) (nM)) [nM] | EC50 ([6]; read-out: 2b (s) (nM)) [nM] | EC50 ([9]; read-out: 4a) [nM] | EC50 ([9]; read-out: 4a (s) (nM)) [nM] | EC50 ([9]; read-out: 4a (t) (nM)) [nM] |
| --- | --- | --- | --- | --- | --- | --- | --- | --- | --- | --- | --- | --- | --- | --- | --- | --- | --- | --- | --- |
| CCC(C)[C@H](NC(=O)OC)C(=O)N1C[C@@H](C)CC1c1ncc(-c2ccc3c(c2)COc2cc4c(ccc5nc([C@@H]6CC(COC)CN6C(=O)[C@H](NC(=O)OC)c6ccccc6)[nH]c54)cc2-3)[nH]1 (stereo in doubt) [Example QB, Methyl {(1R)-2-[(2S,4S)-2-(9-{2-[(2S,4S)-1-{(2S,3R)-2-[(methoxycarbonyl)amino]-3-methylpentanoyl}-4-methylpyrrolidin-2-yl]-1H-imidazol-5-yl}-1,11-dihydroisochromeno[4′,3′:6,7]naphtho[1,2-d]imidazol-2-yl)-4-(methoxymethyl)pyrrolidin-1-yl]-2-oxo-1-phenylethyl}carbamate] | < 1 | 0.011 | 0.011 | < 1 | 0.008 | < 1 | 0.028 | < 1 | 0.021 | < 1 | 0.022 | < 1 | 0.029 | 9.56 | – | – | – | – | – |
| COC[C@H]1C[C@@H](c2nc3ccc4cc5c(cc4c3[nH]2)OCc2cc(-c3cnc([C@@H]4CC[C@H](C)N4C(=O)[C@@H](NC(=O)OC)C(C)C)[nH]3)ccc2-5)N(C(=O)[C@@H](NC(=O)OC)C(C)C)C1 [Example MP, methyl{(2S)-1-[(2S,5S)-2-(5-{2-[(2S,4S)-1-{(2S)-2-[(methoxycarbonyl)amino]-3-methylbutanoyl}-4-methoxymethylpyrrolidin-2-yl]-1,11-dihydroisochromeno[4′,3′:6,7]naphtho[1,2-d]imidazol-9-yl}-1H-imidazol-2-yl)-5-methylpyrrolidin-1-yl]-3-methyl-1-oxobutan-2-yl}carbamate] | < 1 | 0.006 | – | < 1 | 0.004 | < 1 | 0.015 | < 1 | 0.039 | < 1 | 0.032 | < 1 | 0.031 | 24.2 | 0.336 | 0.184 | < 1 | 0.013 | 0.015 |
| COC(=O)N[C@H](C(=O)N1[C@@H](C)CC[C@H]1c1ncc(-c2ccc3c(c2)COc2cc4c(ccc5nc([C@@H]6CC[C@H](C)N6C(=O)[C@@H](NC(=O)OC)[C@@H](C)OC)[nH]c54)cc2-3)[nH]1)[C@@H](C)OC [Example NI, Methyl [(2S,3R)-3-methoxy-1-{(2S,5S)-2-[9-(2-{(2S,5S)-1-[N-(methoxycarbonyl)-O-methyl-L-threonyl]-5-methylpyrrolidin-2-yl}-1H-imidazol-5-yl)-1,11-dihydroisochromeno[4′,3′:6,7]naphtho[1,2-d]imidazol-2-yl]-5-methylpyrrolidin-1-yl}-1-oxobutan-2-yl]carbamate] | < 1 | 0.015 | – | < 1 | 0.007 | < 1 | 0.022 | < 1 | 0.026 | < 1 | 0.019 | < 1 | 0.059 | 24.1 | 0.169 | 0.054 | < 1 | – | 0.02 |
